The source of these data is patent US6500323B1, “Methods and software for designing microfluidic devices” (Caliper Technologies Corp., priority 1999, dated 2002).

In assay [1] the target is Protein Kinase A (PKA) (Homo sapiens, UniProt P17612). The experiment in a line: nonfluorogenic (mobility shift) assay of kinase activity in microfluidic device. The note with it: PKA 100 nM, 10 μM F1-Kemptide; different concentrations of inhibitor sipped; FIG. 3C. The class given is biochemical. On the procedure:
The device illustrated in FIG. 3B was used as described to perform a nonfluorogenic assay of kinase activity, and particularly, to screen for inhibition of kinase activity by inhibitors brought into the device via the external sampling capillary. In particular, Protein Kinase A (PKA) enzyme (100 nM) was placed into well 350, while the fluorescent substrate (10 μM F1-Kemptide) was placed into well 352, different concentrations of an exemplary PKA inhibitor (H-89) were sipped into the reaction channel portion 304 via an external capillary element (the entry point of which is shown as 302) at regular intervals. Flow of materials, including sipping of inhibitor was caused by applying vacuum (as described above) at waste reservoir 358. An electric field was constantly applied across the length of channel segment 310 by virtue of different voltages being applied at reservoirs 354 and 356. The process utilized a 5 second sipping time, with an overall 100 second duty cycle, e.g., reaction time plus separation time plus clearing time.

Assay [2] deals with T1, Gq coupled P2u purinergic receptor (THP-1) (Homo sapiens, UniProt P41231).
T1 construct: cell line that carried the Gq coupled P2u purinergic receptor (THP-1); endogenous in cells; host or cells: THP-1 (human monocytic leukemia cell line)
Briefly: model calcium flux assay, dose response in microfluidic device. The class given is cell-based. As to conditions: THP-1 cells preloaded with Fluo-3 or Fluo-4; UTP 100, 300, 1000 and 3000 nM; detection 15 seconds after initial exposure; FIG. 2D/2E. An excerpt: The device shown in FIG. 2C was fabricated and used to test the dose response of a human monocytic leukemia cell line that carried the Gq coupled P2u purinergic receptor (THP-1), as a model calcium flux assay. Briefly, a phospholipase C/IP3/calcium signal transduction pathway is activated when the receptor binds to its ligand, UTP. When the cells are preloaded with a calcium sensitive indicator, i.e., Fluo-3 or Fluo-4 (available from Molecular Probes, Eugene, Oreg.), the transient increase in intracellular calcium is then detected as a fluorescent signal.
In the present example and with reference to FIGS. 2A and 2C, THP-1 cells were preloaded with Fluo-3 or Fluo-4, as well as a nucleic acid stain (Syto-62 from Molecular Probes). The cells were washed and resuspended in Cell Buffer (1.56 ml HBSS, 0.94 ml 33% Ficoll, 5 μl HEPES (1 M stock), 25 μl 100×PBC, 25 μl 10% BSA, and 0.546 ml OPTI-Prep (65% stock)) and added to reservoir 206. Different concentrations of UTP in Cell Buffer (100, 300, 1000 and 3000 nM, respectively) were then added to reagent reservoirs 210-216. […]
In order to monitor the stepwise increase of each UTP reagent solution, an additional marker solution, BODIPY-arginine, was added to the reagent reservoirs 210-216. […] Briefly, the slope of calcium signal (response) vs. Syto 62 signal (cell number) was calculated for each UTP concentration.
In general terms: Calcium flux is commonly read through the fluorescence of an indicator in the cells.

T1 sequence (P41231 whole entry): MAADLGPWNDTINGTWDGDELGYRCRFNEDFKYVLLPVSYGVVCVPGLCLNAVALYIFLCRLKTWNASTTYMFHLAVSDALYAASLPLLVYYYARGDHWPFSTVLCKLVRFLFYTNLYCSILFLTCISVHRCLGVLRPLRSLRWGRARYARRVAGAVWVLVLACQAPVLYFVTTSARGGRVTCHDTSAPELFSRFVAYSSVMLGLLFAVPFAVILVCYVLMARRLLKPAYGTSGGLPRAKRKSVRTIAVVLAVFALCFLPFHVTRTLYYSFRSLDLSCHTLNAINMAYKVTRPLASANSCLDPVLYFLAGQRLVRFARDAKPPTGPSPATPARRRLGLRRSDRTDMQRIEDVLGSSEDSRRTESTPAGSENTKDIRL

Turning to `O=S(=O)(NCCNC/C=C/c1ccc(Br)cc1)c1cccc2cnccc12` [H-89], in assay [1], the “inhibition of kinase activity (deviation from steady state)” value is reported as “greatest deviation from steady state (A) is seen with highest inhibitor concentration”.
`O=c1ccn([C@@H]2O[C@H](COP(=O)(O)OP(=O)(O)OP(=O)(O)O)[C@@H](O)[C@H]2O)c(=O)[nH]1` [UTP]: in assay [2], the “calcium signal (response), fluorescent signal from each cell” value is on record as “peaks increase discernibly in size with each stepwise addition”.
